According to patent US7629318B2, “Immunosuppressant compounds, methods and uses related thereto” (priority 2002, dated 2009):
Several values for one entry are separate records, joined by “and”; a condition that tells them apart may be missing. Equal entries are not always repeated. Numbered stars: 1 amine (or outer) side, 2 acyl side, 3 side chain; on linkers, the order of the positions; unused ones are H or OH. Square brackets hold non-standard residues; d marks the D form. Peptide text beside a SMILES is read from it. * marks the point of attachment. ξ: configuration not given here. Gly(1-amidinopiperidin-4-yl) = N=C(N)N1CCC([C@H](N)C(=O)O)CC1; X1 = CC(C)c1oc([C@H](CO)N[*:1])nc1C(=O)[*:2]; Pro(3R-Ph) = O=C(O)[C@H]1NCC[C@@H]1c1ccccc1; Tic = O=C(O)[C@@H]1Cc2ccccc2CN1; Cha = N[C@@H](CC1CCCCC1)C(=O)O; NHPhenethyl = c1ccc(CCN*)cc1; NMe(benzyl) = CN(Cc1ccccc1)*; ξDisc = O=C(O)C1NCc2ccccc21; Nle = CCCC[C@H](N)C(=O)O; NHBn = c1ccc(CN*)cc1

Legend:
[1] = system: T-cell proliferation, DR14-LN; settings: for Immunsupressive assays DR14-LN (Max) % Inhibition: maximal inhibition; for IC50: read-out: Immunsupressive assays DR14-LN (IC50)
[2] = Stability of compounds in human blood plasma; type: in vitro ADME
How it was run: (§1)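 Compounds at 5 μM final in rat, mouse or human plasma, incubated at 37 °C and sampled at 0, 6 and 24 h. Proteins precipitated with acetonitrile and the supernatant dried and reconstituted in 50% acetonitrile/0.1% TFA. PBS controls run for unstable compounds.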

[3] = target: T1, Priess (DR4Dw4: DRA1*0101 DRB1*0401) cells (Homo sapiens, UniProt P01903+P01911, A100K/A169T/F76Y/I96L/K127E/L162R/M171V/N62H/P40V/Q125Y/R42H/S133A/S149N/S66Y/V115G/V209L/W38E); assay: Competitive binding to MHC II proteins expressed on Priess cells; type: cell-based
T1 construct: MHC II Proteins Expressed on PRIESS and LG2 Cells; endogenous in cells; host or cells: Priess cells
How it was run: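 LG2 or Priess cells incubated 4 h at 37° C, 6% CO2 in 1% FCS with 10-fold compound dilutions (series 16 nM-1615 μM) and biotinylated-detectable indicator peptide (16 μM solution added). Lysates captured 2 h at 4° C; bound peptide detected via europium-streptavidin time-resolved fluorescence (ex 340, em 613 nm).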

[4] = Stability of compounds in rat blood plasma; type: in vitro ADME
How it was run: as §1

[5] = target: Cathepsin B1 (EC 3.4.22.1 from bovine spleen) (Bos taurus, UniProt P07688); settings: Cathepsin B, 4 h
[6] = system: T-cell proliferation, lymph node cells of chimeric 0401-IE transgenic mice; settings: for Immunsupressive assays DR4-LN (Max) % Inhibition: maximal inhibition; for immunosuppressive properties as measured by a T-cell activation assay: dose-response curves; for IC50: read-out: Immunsupressive assays DR4-LN (IC50); for Immunsupressive assays DR4-LN (Max) % Inhibition / IC50: DR4-LN
How it was run: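 Antigen-primed lymph node cells (1.5×10^5/well) from mice lacking murine class II and carrying a chimeric human RA-associated class II transgene, cultured 3 days with ovalbumin at half-maximal dose plus compound (~0.1–200 uM) in serum-free HL-1. Proliferation read by 3H-thymidine incorporation over the final 16 h.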

[7] = target: DR4Dw14 (DRA1*0101 DRB1*0404) (Homo sapiens, UniProt P01903+P01911, A100R/A169T/F76Y/I96L/K127E/L162R/M171V/N62H/P40V/Q125Y/R42H/S133A/S149N/S66Y/V209L/W38E); assay: Competitive binding to MHC-II protein DR4Dw14; settings: 0404; read-out: Protein binding IC50 (nM) 0404
How it was run: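 Each MHC-II allele incubated with compound 16 hours at room temperature in duplicate; controls lacked compound, or both compound and MHC-II. Complexes captured 2 h at 4 °C, bound biotinylated peptide detected via europium-streptavidin and DELFIA enhancement, time-resolved fluorescence read at ex 340/em 613 (615) nm.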

| SMILES | Immunsupressive assays DR14-LN (Max) % Inhibition [1] [%] | IC50 [1] [µM] | Stability (Arbitrary units) Human 6 h [2] [Arbitrary units] | Stability (Arbitrary units) Human 24 h [2] [Arbitrary units] | IC50 [3] [µM] | Stability (Arbitrary units) Rat 6 h [4] [Arbitrary units] | Stability (Arbitrary units) Rat 24 h [4] [Arbitrary units] | Stability (Arbitrary units) Cath B 4 h [5] | Immunsupressive assays DR4-LN (Max) % Inhibition [6] [%] | immunosuppressive properties as measured by a T-cell activation assay, versus Arg equivalent ([6]; dose-response curve, compared to the Arg-containing peptide) | immunosuppressive properties as measured by a T-cell activation assay [6] | IC50 [6] | IC50 [7] [nM] | stability (arbitrary units) in rat plasma ([4]; after 24 hours, compared to the Arg-containing equivalent) | binding to MHC class II protein expressed on the surface of Priess cells ([3]; compared to the Arg-containing equivalent) |
| --- | --- | --- | --- | --- | --- | --- | --- | --- | --- | --- | --- | --- | --- | --- | --- |
| CCCC[C@H](NC(=O)[C@@H]1Cc2ccccc2CN1C(=O)[C@@H](NC(=O)[C@H](CC1CCCCC1)NC(C)=O)C1CCN(C(=N)N)CC1)C(=O)N1CC[C@H](c2ccccc2)[C@H]1C(=O)N[C@@H](CO)c1nc(C(=O)N(C)C)c(C(C)C)o1 [Compound P53, Ac-Cha-Gpg-Tic-Nle-βPhPro-[S(oxaz)L]-NMe2] (Ac-[Cha][Gly(1-amidinopiperidin-4-yl)][Tic][Nle][Pro(3R-Ph)][X1]-NMe2) | 101 | 32 | 110 | 122 | 3 | 114 | 108 | 97 Arbitrary units | 100 | improved immunosuppressive properties | immunosuppressive properties | 40 µM | 180 | – | – |
| CCCC[C@H](NC(=O)[C@@H]1Cc2ccccc2CN1C(=O)[C@@H](NC(=O)[C@H](CC1CCCCC1)NC(C)=O)C1CCN(C(=N)N)CC1)C(=O)NCCc1ccccc1 [Compound P69, Ac-Cha-Gpg-Tic-Nle-N(H)CH2CH2Ph] (Ac-[Cha][Gly(1-amidinopiperidin-4-yl)][Tic][Nle]-NHPhenethyl) | 107 | 23 | 105 | 93 | 11 | 41 | 42 | 92 Arbitrary units | 101 | – | immunosuppressive properties | 19 µM | 4500 | improved stability | – |
| CCCC[C@H](NC(=O)[C@@H]1Cc2ccccc2CN1C(=O)[C@@H](NC(=O)[C@H](CC1CCCCC1)NC(C)=O)C1CCN(C(=N)N)CC1)C(=O)NCc1ccccc1 [Compound P68, Ac-Cha-Gpg-Tic-Nle-N(H)Bn] (Ac-[Cha][Gly(1-amidinopiperidin-4-yl)][Tic][Nle]-NHBn) | 105 | 17 | 85 | 39 | 12 | 7 | 0 | 52 Arbitrary units | 102 | – | – | 18 µM | 2000 | – | – |
| CCCC[C@H](NC(=O)[C@@H]1Cc2ccccc2CN1C(=O)[C@@H](NC(=O)[C@H](CC1CCCCC1)NC(C)=O)C1CCN(C(=N)N)CC1)C(=O)N(C)Cc1ccccc1 [Compound P74, Ac-Cha-Gpg-Tic-Nle-N(Me)Bn] (Ac-[Cha][Gly(1-amidinopiperidin-4-yl)][Tic][Nle]-{NMe(benzyl)}) | 97 | 14 | 114 | 125 | 9.2 | 91 | 71 | 105 Arbitrary units | 102 | – | immunosuppressive properties | 16 µM and 18 µM | 2200 | – | Improved binding |
| CSCC[C@H](NC(=O)C1c2ccccc2CN1C(=O)[C@@H](NC(=O)[C@H](CC1CCCCC1)NC(C)=O)C1CCN(C(=N)N)CC1)C(N)=O (stereo partly drawn) [Compound P66-1, Ac-Cha-Gpg-Disc-Met-NH2] (Ac-[Cha][Gly(1-amidinopiperidin-4-yl)][ξDisc]M-NH2) | – | – | 103 | 87 | 7.8 | 138 | 81 | 102 Arbitrary units | 20 | – | – | 120 µM | 590 | – | – |
| CSCC[C@H](NC(=O)[C@@H]1Cc2ccccc2CN1C(=O)[C@H](CCCNC(=N)N)NC(=O)[C@H](CC1CCCCC1)NC(C)=O)C(=O)N1CC[C@H](c2ccccc2)[C@H]1C(N)=O [Compound P31, Ac-Cha-Arg-Tic-Met-βPhPro-NH2] (Ac-[Cha]R[Tic]M[Pro(3R-Ph)]-NH2) | 89 | 98 | 93 | 86 | 3.7 | 42 | 5 | 102 Arbitrary units | 64 | – | – | 18 µM | 850 | – | – |
| CCCC[C@H](NC(=O)C1c2ccccc2CN1C(=O)[C@@H](NC(=O)[C@H](CC1CCCCC1)NC(C)=O)C1CCN(C(=N)N)CC1)C(=O)N1CC[C@H](c2ccccc2)[C@H]1C(=O)N[C@@H](CO)c1nc(C(=O)N(C)C)c(C(C)C)o1 (stereo partly drawn) [Compound P81-1] (Ac-[Cha][Gly(1-amidinopiperidin-4-yl)][ξDisc][Nle][Pro(3R-Ph)][X1]-NMe2) | – | 43 | 151 | 162 | 3.4 | 151 | 112 | 105 Arbitrary units | – | – | – | 63 µM | 90 | – | – |
| CSCC[C@H](NC(=O)[C@@H]1Cc2ccccc2CN1C(=O)[C@@H](NC(=O)[C@H](CC1CCCCC1)NC(C)=O)C1CCN(C(=N)N)CC1)C(=O)N1CC[C@H](c2ccccc2)[C@H]1C(=O)N[C@@H](CO)c1nc(C(=O)N(C)C)c(C(C)C)o1 [Compound P60, Ac-Cha-Gpg-Tic-Met-βPhPro-[S(oxaz)L]-NMe2] (Ac-[Cha][Gly(1-amidinopiperidin-4-yl)][Tic]M[Pro(3R-Ph)][X1]-NMe2) | 98 | 41 | – | 120 | 2.1 | 134 | 124 | 88 Arbitrary units and 98 Arbitrary units | 97 | – | – | 29 µM | 190 | – | – |
| CCCC[C@H](NC(=O)C1c2ccccc2CN1C(=O)[C@@H](NC(=O)[C@H](CC1CCCCC1)NC(C)=O)C1CCN(C(=N)N)CC1)C(=O)N(C)Cc1ccccc1 (single isomer, unassigned) [Compound P78-1] | – | – | 93 | 107 | 9.8 | 80 | 84 | 100 Arbitrary units | – | – | – | 34 µM | 1400 | – | – |
| CCCC[C@H](NC(=O)C1c2ccccc2CN1C(=O)[C@H](CCCNC(=N)N)NC(=O)[C@H](CC1CCCCC1)NC(C)=O)C(=O)N(C)Cc1ccccc1 (stereo partly drawn) [Compound P72-1, Ac-Cha-Arg-Disc-Nle-N(Me)Bn] (Ac-[Cha]R[ξDisc][Nle]-{NMe(benzyl)}) | 95 | 29 | 99 | 99 | 7.5 | 80 | 67 | 98 Arbitrary units | 103 | – | – | 31 µM | 1700 | – | – |
